The test deals with L1210 leukemia ip in BDF1 mice, survival T/C. Kind of test: NCI In Vivo Anticancer Drug Screen. Data for tumor model L1210 Leukemia (intraperitoneal) in B6D2F1 (BDF1) mice. The following applies: endpoint: mean survival time, higher = longer survival. A digest of the protocol: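 Transplantable tumor model; survival measured in treated vs vehicle control mice. Value = treated/control.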

Setting [1] is: dose: 100.0 mg/kg/injection, schedule: Q04DX002 (ip), vehicle: Klucel (hydroxypropylcellulose) (HPC).
Where [2] appears, read: dose: 100.0 mg/kg/injection, schedule: Q01DX001 (ip), vehicle: carboxymethylcellulose (CMC).
The mark [3] stands for this setting: dose: 200.0 mg/kg/injection, schedule: Q01DX001 (ip), vehicle: carboxymethylcellulose (CMC).
[4] abbreviates: dose: 400.0 mg/kg/injection, schedule: Q01DX001 (ip), vehicle: carboxymethylcellulose (CMC).
[5] abbreviates: dose: 50.0 mg/kg/injection, schedule: Q04DX003 (ip), vehicle: saline with Tween-80.
[6] abbreviates: dose: 100.0 mg/kg/injection, schedule: Q04DX003 (ip), vehicle: saline with Tween-80.
The mark [7] stands for this setting: dose: 50.0 mg/kg/injection, schedule: Q01DX001 (ip), vehicle: saline.
The mark [8] stands for this setting: dose: 100.0 mg/kg/injection, schedule: Q01DX001 (ip), vehicle: saline.
Where [9] appears, read: dose: 200.0 mg/kg/injection, schedule: Q01DX001 (ip), vehicle: saline.
Where [10] appears, read: dose: 400.0 mg/kg/injection, schedule: Q01DX001 (ip), vehicle: saline.

Molecules are shown by their SMILES. Several values for one entry are separate records, joined by “and”; a condition that tells them apart may be missing. Equal values may be shown once. Inconclusive results and toxic doses are left out.

For the molecule `O=C(Nc1ccccc1C(F)(F)F)c1ccccc1Cl`, the T/C by setting is: (dose: 100.0 mg/kg/injection, schedule: Q01DX009 (ip), vehicle: acetone) 98 % of control; (dose: 200.0 mg/kg/injection, schedule: Q01DX009 (ip), vehicle: acetone) 93 % of control; (dose: 400.0 mg/kg/injection, schedule: Q01DX009 (ip), vehicle: acetone) 93 % of control.

Regarding `COC(OC)c1[nH]c(=S)[nH]c(=O)c1CCc1ccccc1`, the T/C under setting [1] was 97 % of control; the T/C (dose: 200.0 mg/kg/injection, schedule: Q04DX002 (ip), vehicle: Klucel (hydroxypropylcellulose) (HPC)) was 97 % of control; the T/C (dose: 400.0 mg/kg/injection, schedule: Q04DX002 (ip), vehicle: Klucel (hydroxypropylcellulose) (HPC)) was 86 % of control.

In the case of `CC1CC(C(=O)O)Cc2c1nc1ccccc1c2C(=O)O` (centres undefined), the T/C was 100 % of control (dose: 100.0 mg/kg/injection, schedule: Q04DX002 (ip), vehicle: saline with Tween-80); 93 % of control (dose: 200.0 mg/kg/injection, schedule: Q04DX002 (ip), vehicle: saline with Tween-80); 96 % of control (dose: 400.0 mg/kg/injection, schedule: Q04DX002 (ip), vehicle: saline with Tween-80).

For `O=S(c1cc(Cl)cc(Cl)c1O)c1cc(Cl)cc(Cl)c1O`, the T/C reads like this: (dose: 50.0 mg/kg/injection, schedule: Q01DX001 (ip), vehicle: carboxymethylcellulose (CMC)) 95 % of control; under setting [2], 98 % of control; under setting [3], 101 % of control; under setting [4], 114 % of control.

Take `COC(=O)c1ccccc1NC(=S)NC(=O)c1ccc(OC)cc1`: the T/C is, setting by setting: (dose: 100.0 mg/kg/injection, schedule: Q01DX009 (ip), vehicle: Klucel (hydroxypropylcellulose) (HPC)) 93 % of control; (dose: 100.0 mg/kg/injection, schedule: Q04DX003 (ip), vehicle: Klucel (hydroxypropylcellulose) (HPC)) 91 % of control; (dose: 200.0 mg/kg/injection, schedule: Q01DX009 (ip), vehicle: Klucel (hydroxypropylcellulose) (HPC)) 98 % of control; (dose: 200.0 mg/kg/injection, schedule: Q04DX003 (ip), vehicle: Klucel (hydroxypropylcellulose) (HPC)) 104 % of control; (dose: 400.0 mg/kg/injection, schedule: Q01DX009 (ip), vehicle: Klucel (hydroxypropylcellulose) (HPC)) 95 % of control; (dose: 400.0 mg/kg/injection, schedule: Q04DX003 (ip), vehicle: Klucel (hydroxypropylcellulose) (HPC)) 96 % of control.

Regarding `O=C(NP(=O)(N1CC1)N1CC1)OCCCCCCOC(=O)NP(=O)(N1CC1)N1CC1`, the T/C runs as follows: under setting [2], 101 % of control; under setting [3], 113 % of control; under setting [4], 108 % of control.

As for `COc1cc(C=NCCN=Cc2cc(OC)c(OC)c(OC)c2)cc(OC)c1OC`, the T/C is 94 % of control (dose: 50.0 mg/kg/injection, schedule: Q01DX009 (ip), vehicle: saline with Tween-80); 94 % of control under setting [5]; 100 % of control (dose: 100.0 mg/kg/injection, schedule: Q01DX009 (ip), vehicle: saline with Tween-80); 98 % of control under setting [6]; 105 % of control (dose: 200.0 mg/kg/injection, schedule: Q04DX003 (ip), vehicle: saline with Tween-80).

For `O=C1CCC(=O)N1CCc1csc2ccccc12`, the T/C under setting [2] was 110 % of control; the T/C (dose: 177.6 mg/kg/injection, schedule: Q01DX001 (ip), vehicle: carboxymethylcellulose (CMC)) was 95 % of control and 92 % of control; the T/C under setting [3] was 96 % of control; the T/C (dose: 266.8 mg/kg/injection, schedule: Q01DX001 (ip), vehicle: carboxymethylcellulose (CMC)) is 93 % of control and 94 % of control; the T/C (dose: 600.0 mg/kg/injection, schedule: Q01DX001 (ip), vehicle: carboxymethylcellulose (CMC)) is 101 % of control and 91 % of control.

Take `CC(=O)Nc1c(C)c(NC(C)=O)c(C)c(NC(C)=O)c1C`: the T/C is 90 % of control (dose: 75.0 mg/kg/injection, schedule: Q01DX001 (ip), vehicle: Klucel (hydroxypropylcellulose) (HPC)); 94 % of control (dose: 75.0 mg/kg/injection, schedule: Q01DX009 (ip), vehicle: Klucel (hydroxypropylcellulose) (HPC)); 101 % of control (dose: 150.0 mg/kg/injection, schedule: Q01DX001 (ip), vehicle: Klucel (hydroxypropylcellulose) (HPC)); 92 % of control (dose: 300.0 mg/kg/injection, schedule: Q01DX001 (ip), vehicle: Klucel (hydroxypropylcellulose) (HPC)).

In the case of `Cc1ccc(NC(=O)NNC(=O)CCCC(=O)NNC(=O)Nc2ccc(C)cc2)cc1`, the T/C under setting [7] was 96 % of control, the T/C under setting [8] was 102 % of control, the T/C under setting [9] is 96 % of control and the T/C under setting [10] was 96 % of control.

As to `CNC1=C(N2CC2)C(=O)C(NC)=C(N2CC2)C1=O`, the T/C by setting is: (dose: 0.01 mg/kg/injection, schedule: Q01DX009 (ip), vehicle: Klucel (hydroxypropylcellulose) (HPC)) 97 % of control and 102 % of control; (dose: 0.02 mg/kg/injection, schedule: Q01DX009 (ip), vehicle: Klucel (hydroxypropylcellulose) (HPC)) 100 % of control and 101 % of control; (dose: 0.04 mg/kg/injection, schedule: Q01DX009 (ip), vehicle: Klucel (hydroxypropylcellulose) (HPC)) 109 % of control and 119 % of control; (dose: 0.05 mg/kg/injection, schedule: Q01DX009 (ip), vehicle: saline) 106 % of control; (dose: 0.09 mg/kg/injection, schedule: Q04DX003 (ip), vehicle: Klucel (hydroxypropylcellulose) (HPC)) 110 % of control; (dose: 0.1 mg/kg/injection, schedule: Q01DX009 (ip), vehicle: saline) 118 % of control. Moreover, the T/C (dose: 0.1 mg/kg/injection, schedule: Q04DX003 (ip), vehicle: saline) was 103 % of control; the T/C (dose: 0.19 mg/kg/injection, schedule: Q01DX009 (ip), vehicle: Klucel (hydroxypropylcellulose) (HPC)) is 161 % of control; the T/C (dose: 0.2 mg/kg/injection, schedule: Q01DX009 (ip), vehicle: saline) is 173 % of control; the T/C (dose: 0.2 mg/kg/injection, schedule: Q04DX003 (ip), vehicle: saline) was 112 % of control; the T/C (dose: 0.37 mg/kg/injection, schedule: Q01DX001 (ip), vehicle: saline) was 108 % of control; the T/C (dose: 0.39 mg/kg/injection, schedule: Q01DX009 (ip), vehicle: Klucel (hydroxypropylcellulose) (HPC)) is 112 % of control and 88 % of control. Also, the T/C (dose: 0.39 mg/kg/injection, schedule: Q04DX003 (ip), vehicle: Klucel (hydroxypropylcellulose) (HPC)) is 156 % of control; the T/C (dose: 0.78 mg/kg/injection, schedule: Q04DX003 (ip), vehicle: Klucel (hydroxypropylcellulose) (HPC)) was 112 % of control and 115 % of control; the T/C (dose: 0.8 mg/kg/injection, schedule: Q04DX003 (ip), vehicle: saline) was 157 % of control.

As for `COC(=O)C1(C)CCCC2(C)c3cc(O)c(C(C)C)cc3CCC12` (centres undefined), the T/C is 88 % of control (dose: 100.0 mg/kg/injection, schedule: Q01DX001 (ip), vehicle: acetone); 90 % of control (dose: 200.0 mg/kg/injection, schedule: Q01DX001 (ip), vehicle: acetone); 93 % of control (dose: 400.0 mg/kg/injection, schedule: Q01DX001 (ip), vehicle: acetone).

Consider `[O]=[Nb]`, for which the T/C was 95 % of control (dose: 2.5 mg/kg/injection, schedule: Q01DX009 (ip), vehicle: saline with Tween-80); 96 % of control (dose: 5.0 mg/kg/injection, schedule: Q01DX009 (ip), vehicle: saline with Tween-80); 97 % of control (dose: 10.0 mg/kg/injection, schedule: Q01DX009 (ip), vehicle: saline with Tween-80).

For `O=C1c2cccc3cccc(c23)C1(c1ccccc1)c1ccccc1`, the T/C reads like this: (dose: 100.0 mg/kg/injection, schedule: Q01DX009 (ip), vehicle: saline) 100 % of control; (dose: 200.0 mg/kg/injection, schedule: Q01DX009 (ip), vehicle: saline) 100 % of control; (dose: 400.0 mg/kg/injection, schedule: Q01DX009 (ip), vehicle: saline) 111 % of control.

In the case of `CCCCCCC(=C/c1ccccc1)/C=N/NC(=O)c1ccc[n+](C)c1`, the T/C by setting is: (dose: 25.0 mg/kg/injection, schedule: Q04DX003 (ip), vehicle: saline with Tween-80) 93 % of control; under setting [5], 116 % of control; under setting [6], 104 % of control.

With `CSc1nc(C)c(NC(C)=O)c(=O)[nH]1`, the T/C runs as follows: under setting [7], 98 % of control; under setting [8], 101 % of control; under setting [9], 98 % of control; under setting [10], 104 % of control.

Regarding `NC(=S)Nc1cccnc1`, the T/C was 91 % of control (dose: 25.0 mg/kg/injection, schedule: Q04DX002 (ip), vehicle: Klucel (hydroxypropylcellulose) (HPC)); 91 % of control (dose: 50.0 mg/kg/injection, schedule: Q04DX002 (ip), vehicle: Klucel (hydroxypropylcellulose) (HPC)); 97 % of control under setting [1].

The record behind these values is PubChem BioAssay AID248 (DTP/NCI, 2004).
